Experimental data from PubChem BioAssay (NCI).
Where “and” joins values, the source holds several entries; their conditions need not be identical. Equal values may be shown once.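 Each compound was tested at five concentrations against cells in 96-well plates for 48 hours. GI50: concentration for 50% inhibition of growth. TGI: concentration producing complete growth inhibition.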

Key:
Test in all cases: NCI-60 cell line screen, 48 h
HCT-116 colon = system: HCT-116 colon
RPMI-8226 leukemia = system: RPMI-8226 leukemia
OVCAR-4 ovarian = system: OVCAR-4 ovarian
SF-295 CNS = system: SF-295 CNS
UO-31 renal = system: UO-31 renal
COLO 205 colon = system: COLO 205 colon
HOP-92 NSCLC = system: HOP-92 NSCLC
ACHN renal = system: ACHN renal
DU-145 prostate = system: DU-145 prostate
HL-60(TB) leukemia = system: HL-60(TB) leukemia

SMILES	GI50 (HCT-116 colon) [µM]	TGI (HCT-116 colon)	GI50 (RPMI-8226 leukemia) [µM]	TGI (RPMI-8226 leukemia) [µM]	GI50 (OVCAR-4 ovarian) [µM]	TGI (OVCAR-4 ovarian)	GI50 (SF-295 CNS) [µM]	TGI (SF-295 CNS)	GI50 (UO-31 renal) [µM]	TGI (UO-31 renal)	GI50 (COLO 205 colon) [µM]	TGI (COLO 205 colon)	GI50 (HOP-92 NSCLC) [µM]	TGI (HOP-92 NSCLC)	GI50 (ACHN renal) [µM]	GI50 (DU-145 prostate) [µM]	TGI (DU-145 prostate)	GI50 (HL-60(TB) leukemia) [µM]	TGI (HL-60(TB) leukemia) [µM]	TGI (ACHN renal)
CC1CN1CC(O)C(O)CN1CC1C (centres undefined)	2.29	> 100 µM	8.86	> 88.6	6.18	> 100 µM	0.494	> 33.4 µM	0.932	10.9 µM	5.45	> 38.5 µM	6.12	> 28.6 µM	0.395	0.48	9.28 µM	0.305	20.1	–
O=C(N/N=C/c1cccc(O)c1O)c1ccccc1	0.388	> 100 µM	1.3	> 100	0.312	> 29.5 µM	2.28	> 100 µM	0.434	14 µM	1.97	> 55.7 µM	0.329	8.38 µM	0.477	1.15	> 100 µM	0.301	1.94	> 100 µM
CC(=O)OC1CC(O)C23COC(O)C1(C)C2CC(O)C1(C)C3C(=O)C(O)C2(C)C(c3ccoc3)CC3OC321 (centres undefined)	< 0.01	> 100 µM	< 0.01	0.0237	–	> 100 µM	0.0522	–	3.08	> 41.4 µM	< 0.01	> 100 µM	0.911	> 100 µM	0.685	0.9	> 100 µM	< 0.01	> 100	> 100 µM
CCCCCCCC(CC(=O)NC(CO)C(=O)NC(CO)CC(C)C)OC(=O)CC(CCCCCCC)OC(=O)CC(CCCCCCC)OC1OC(C)C(O)C(OC2OC(C)C(O)C(OC(C)=O)C2O)C1O (centres undefined)	–	25.8 µM	–	–	–	27.8 µM	–	30.2 µM	–	28.3 µM	–	18.9 µM	–	22.8 µM	–	–	23.4 µM	–	23.4	31.4 µM
O=C1c2ccccc2-c2c1c1ccccc1c(=O)n2Cc1ccccc1	–	> 100 µM	–	> 100	–	42.3 µM	–	> 100 µM	–	> 100 µM	–	> 100 µM	–	> 100 µM	–	–	> 100 µM	–	> 100	–
COc1ccc2c(c1)C(=O)c1c-2n(CCCn2ccnc2)c(=O)c2ccccc12	0.235	0.74 µM	0.223	2	1.33	> 100 µM	0.101	2.13 µM	0.0867	0.476 µM	0.579	14.3 µM	1.03	> 23.2 µM	0.144	0.247	4.66 µM	1.49	18.4	1.04 µM
CCOC(=O)c1cc(/C(=N\O)c2cc(OC)c(OC)c(OC)c2)n2cc(C)cc(C)c12	1.86	3.93 µM	2.46	5.79	1.95	5.1 µM	1.72	5.25 µM	–	–	–	–	2.26	7.08 µM	3	3.67	> 100 µM	2.28	7.57	> 100 µM
CCOC(=O)c1c(CN2CCN(c3ccccc3)CC2)n(-c2ccccc2)c2cc(Br)c(O)cc12	4.39	20.1 µM	3.61	> 100	8.63	24.6 µM	4.7	24.3 µM	8.99	23.1 µM	21.3	41.7 µM	2.98	11.7 µM	8.39	12.5	28.2 µM	4.12	> 100	21.9 µM
COc1ccc(C(=O)c2cc(C)c(OC)c(C)c2)c(OC)c1N(C(=O)C(Cl)Cl)C(=O)C(Cl)Cl	0.0772	> 58.8 µM	0.0794	20.8	1.59	> 100 µM	0.0323	> 100 µM	0.0736	> 47.5 µM	0.156	4.14 µM	0.407	> 94 µM	0.0699	0.0392	> 100 µM	0.0306	0.0956	> 100 µM
NCCCC[C@@H]1NC(=O)[C@H]2CCCN2C(=O)[C@H](Cc2ccccc2)NC(=O)[C@H](Cc2ccccc2)CNC1=O	> 100	> 100 µM	> 100	> 100	> 100	> 100 µM	> 100	> 100 µM	> 100	> 100 µM	> 100	> 100 µM	44.1	> 100 µM	> 100	> 100	> 100 µM	> 100	> 100	> 100 µM
Cc1cn2c(/C=C3/C(=O)N(C)c4ccccc43)c(C)nc2s1	5.02	> 100 µM	17	> 100	21.9	> 100 µM	–	–	17.2	> 100 µM	3.93	21 µM	31.9	> 100 µM	25.9	27.4	> 100 µM	2.42	6.19	> 100 µM
CC(C)c1ccc(C(=O)Nc2sc3c(c2C(N)=O)CCC(=O)C3)cc1	0.311	1.43 µM	0.127	0.691	0.329	1.2 µM	1.42	3.61 µM	0.267	1.1 µM	0.564	1.9 µM	1.29	3.67 µM	0.343	3.16	14.3 µM	0.615	4.82	1.11 µM
CC1(C)C2CC(O)C1(C)CC2=O (centres undefined)	–	> 100 µM	–	> 100	–	> 100 µM	–	> 100 µM	–	> 100 µM	–	> 100 µM	–	> 100 µM	–	–	> 100 µM	–	> 100	> 100 µM
Cc1cc(C)c(C(=O)CC(=O)c2cccnc2)c(C)c1	4.31	> 100 µM	5.31	> 100	8.59	> 100 µM	2.78	83.5 µM	4.63	> 100 µM	8.01	> 100 µM	7.47	57 µM	6.28	12.2	> 100 µM	8.59	31.7	> 100 µM
COc1ccc2c(c1)C=C([N+](=O)[O-])C(C1OC(C)(C)OC1C1COC(C)(C)O1)O2 (centres undefined)	–	4.04 µM	–	4.54	–	21.3 µM	–	22.2 µM	–	26.3 µM	–	30 µM	–	37.8 µM	–	–	29.5 µM	–	5.49	6.53 µM
CCC1(O)C(=O)OCc2c1cc1n(c2=O)Cc2cc3ccc(C=O)cc3nc2-1 (centres undefined)	0.519	7.29 µM and 16.4 µM	–	30.4	10.3	50 µM and 23.6 µM	2.07	50 µM and 52.6 µM	1.08	5.14 µM and 7.98 µM	5.77	12.5 µM and 31.3 µM	–	42 µM and 84.4 µM	1.73	–	3.21 µM and 24.3 µM	–	5.99	38.9 µM and 5.51 µM
COc1ccc(OC)c(/C=C/C(=O)N/N=C/c2ccc(Cl)cc2)c1	0.0571	–	0.286	> 39.6	1.41	> 100 µM	0.0701	> 25.4 µM	3.37	> 100 µM	0.0935	0.599 µM	9.27	75.2 µM	1.61	0.18	> 29 µM	0.0785	0.483	> 100 µM
CC(=O)OC1Oc2ccccc2-c2oc(=O)c(-c3cc4ccc(N(C)C)cc4oc3=O)cc21 (centres undefined)	1.42	21.7 µM	0.392	15	1.29	24 µM	4.57	21 µM	16.9	48.8 µM	16.4	41.5 µM	4.8	23.3 µM	10.4	12	27.7 µM	8.16	> 100	23.2 µM
Cc1cccc2nc(-c3ccccc3)cc(=O)n12	–	> 100 µM	–	> 100	–	> 100 µM	–	> 100 µM	–	–	–	> 100 µM	–	> 100 µM	–	–	> 100 µM	–	> 100	> 100 µM
CCCCN=C(N)c1ccc(OCCSCCOc2ccc(C(N)=NCCCC)cc2)cc1	4.46	> 100 µM	2.71	53.4	3.94	> 100 µM	2.73	53.8 µM	> 100	> 100 µM	3.1	15 µM	1.44	14.6 µM	> 100	10.7	> 100 µM	5.97	30	> 100 µM
Nc1ncc(-c2cnn(CCO)c2)c2scc(-c3ccc(NC(=O)Nc4cccc(F)c4)cc3)c12	0.206	3.18 µM	0.454	2.81	0.299	11.4 µM	< 0.0373	0.762 µM	0.219	1.98 µM	< 0.01	< 0.0307 µM	0.227	0.733 µM	0.289	0.52	11.6 µM	0.499	5.09	4.75 µM
CCc1[nH]c(=O)nc(N)c1-c1ccc(N2CCCCC2)c([N+](=O)[O-])c1	–	> 100 µM	–	> 100	–	> 100 µM	–	> 100 µM	–	> 100 µM	–	> 100 µM	–	> 100 µM	–	–	> 100 µM	–	> 100	> 100 µM
COC(=O)C(=O)C(C(=O)C(=O)Nc1ccccc1C(N)=O)c1nc2ccc(Cl)cc2[nH]c1=O (centres undefined)	–	> 100 µM	–	> 100	–	> 100 µM	–	> 100 µM	–	> 100 µM	–	> 100 µM	–	> 100 µM	–	–	> 100 µM	–	> 100	> 100 µM
NC(N)=NCCCn1c2c(c3ccccc3c1=O)C(=O)c1ccccc1-2	22.3	45.6 µM	42.7	> 100	55.6	> 100 µM	1.66	7.72 µM	–	–	21.2	79.7 µM	3.2	47.5 µM	18	7.59	22.9 µM	23.9	81.3	35.2 µM
COc1cc(OC)c(/C=C/C(=O)c2c(OC)cccc2OC)c(OC)c1	0.394	> 100 µM	0.666	> 100	19.7	> 100 µM	0.395	–	0.899	> 100 µM	0.619	–	0.222	–	0.703	2.01	> 29.3 µM	0.348	1.82	> 100 µM
CN(C)CCCn1c2c(c3ccccc3c1=O)C(=O)c1ccccc1-2	0.578	4.34 µM	1.4	5.79	3.15	48.9 µM	1.12	3.74 µM	2.5	23.5 µM	7.52	24.8 µM	0.421	5.59 µM	0.507	1.33	8.54 µM	1.74	3.85	2.15 µM
NC(=S)N/N=C/c1ccc(OC(=O)COc2ccc(Cl)cc2)cn1	4.93	> 100 µM	7.31	> 100	5.87	> 100 µM	20.8	> 100 µM	3.24	21.5 µM	31.8	> 100 µM	–	–	3.39	2.46	8.65 µM	0.954	20.8	> 100 µM
Fc1cc(F)c(COc2cc(Cn3cnc4c(Cl)nc(Cl)nc43)ccc2C23CC4CC(CC(C4)C2)C3)cc1F	15.2	28.5 µM	–	–	19.5	44 µM	18	34 µM	17.8	31.6 µM	17.8	39.1 µM	17.6	32.1 µM	17.1	17.1	30.8 µM	1.99	4.58	30.8 µM
